This note sets out measurements from patent EP2599815B1, “POLYCARBOXYLIC ACID CONDENSATE, THERMOSETTING RESIN COMPOSITION, SUBSTRATE FOR MOUNTING SEMICONDUCTOR ELEMENT AND PROCESS FOR PRODUCING SAME, AND SEMICONDUCTOR DEVICE” (Hitachi Chemical Co., Ltd., priority 2010, dated 2012).

Data set [1] in a line: Solubility in water at 30°C of carboxyl group-containing compounds. The settings on record: for solubility: distilled water, 30 °C, water, thermodynamic from solid.

In brackets after ≈: the same amount, converted by molar mass. Like-named read-outs stand apart in the source and are kept apart here.

By solubility is commonly meant how much of the substance goes into solution per volume. Lower therefore signals little dissolved substance.

As to `O=C(O)C1CCCCC1C(=O)O` (stereo not drawn) [hexahydrophthalic acid], in data set [1], the solubility came out at 1.5 mg/mL (≈ 8.71 mM). Take `O=C(O)C1CCC(C(=O)O)C(C(=O)O)C1` (stereo not drawn) [hydrogenated trimellitic acid]: the “solubility in water (30°C)” value in data set [1] (weight of solute per 1 L of distilled water in a saturated aqueous solution at 30°C) was 300 mg/mL (≈ 1390 mM).

As for `O=C(O)/C=C\C(=O)O` [maleic acid], the concentration in solution in data set [1] (solubility) came to 800 mg/mL (≈ 6890 mM).

Turning to `O=C(O)c1ccccc1C(=O)O` [phthalic acid], the solubility in data set [1] amounted to 9 mg/mL (≈ 54.2 mM). With `O=C(O)c1ccc(C(=O)O)c(C(=O)O)c1` [trimellitic acid], in data set [1], the solubility came to 20 mg/mL (≈ 95.2 mM). Take tetrahydrophthalic acid: the “solubility in water (30°C)” value was 5 mg/mL.
